Measured values: ChEMBL document CHEMBL1201862, “PubChem BioAssay data set” (2004)
Calls of active or inactive are those of the source.

Experiments:
[1] = inhibitors of SNCA 5'UTR-driven translation, confirmation, luminescence, H4 neuroglioblastoma cells, dose confirmation (AID 2454); format: functional, cell-based;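 further: H4 neuroglioblastoma cells carrying an alpha-synuclein 5'UTR luciferase reporter; potency for inhibition of the luciferase signal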
BJ [2] = experiment: cytotoxicity toward BJ-TERT fibroblasts, dose response, cell-based, RAS-independent, luminescence (AID 1933); format: functional; conditions: Homo sapiens
[3] = inhibitors of firefly luciferase expression or activity, dose response, H4 neuroglioma cells, luminescence (AID 1990); format: functional, cell-based
BJ [4] = experiment: cells; format: functional, cell-based; conditions: Homo sapiens
[5] = inhibitors of SNCA 5'UTR-driven reporter translation, confirmation, H4 neuroglioma cells, luminescence (AID 1988); format: functional, cell-based
BJ [6] = experiment: cytotoxicity toward BJ-TERT-LT-ST fibroblasts, dose response, cell-based, RAS-independent, luminescence (AID 1935); format: functional; conditions: Homo sapiens;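 further: BJ fibroblasts immortalized with TERT plus LT and ST oncogenes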
J774.A1 = experiment: Confirmation of image-based Screening Assay for Inhibitors of Phagocytosis. [Related pubchem assays (depositor defined):AID1029, AID1643]; format: functional, cell-based; conditions: Mus musculus
cells = format: functional, cell-based
[7] = luciferase reporter signal reduction – luminescence, H4-C neuroglioblastoma cells, dose response (AID 2458); format: functional, cell-based;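 further: H4 neuroglioblastoma cells stably carrying a luciferase reporter gene fusion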
[8] = cytotoxicity toward DRD oncogenic fibroblasts, dose response, cell-based, non-viral oncogenic, luminescence (AID 1934); format: functional; conditions: Homo sapiens
[9] = biological target: T1, Polyadenylate-binding protein 1 (Homo sapiens, UniProt P11940); experiment: PABP1 MLLE–PAM2 interaction inhibitors, dose response, miRNA deadenylation inhibitor project, biochemical, fluorescence polarization, Cy5-PAM2 peptide, secondary (AID 602260); format: functional; conditions: read-out: IC50_Mean
Hexokinase HKDC1 = Hexokinase HKDC1 (Homo sapiens, UniProt Q2TB90); experiment: HKDC1 hexokinase inhibitors, dose response, biochemical, W721R variant (AID 504729); format: functional
INS1 = experiment: beta cell apoptosis inhibitors, cytokine rescue, dose response, luminescence, retest (AID 449756); format: functional, cell-based; conditions: Rattus norvegicus;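 further: cell death triggered by IL-1 beta plus TNF-alpha plus IFN-gamma mixture; protective hits raise ATP signal compared with cytokine alone wells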
[10] = biological target: T2, Microphthalmia-associated transcription factor (Homo sapiens, UniProt O75030); experiment: TRPM1 promoter luciferase signal decrease, dose response, MITF inhibitor project, cell-based, SK-MEL-5, cherry-picked, set 3 (AID 493073); format: functional
T2 sequence (O75030 whole entry): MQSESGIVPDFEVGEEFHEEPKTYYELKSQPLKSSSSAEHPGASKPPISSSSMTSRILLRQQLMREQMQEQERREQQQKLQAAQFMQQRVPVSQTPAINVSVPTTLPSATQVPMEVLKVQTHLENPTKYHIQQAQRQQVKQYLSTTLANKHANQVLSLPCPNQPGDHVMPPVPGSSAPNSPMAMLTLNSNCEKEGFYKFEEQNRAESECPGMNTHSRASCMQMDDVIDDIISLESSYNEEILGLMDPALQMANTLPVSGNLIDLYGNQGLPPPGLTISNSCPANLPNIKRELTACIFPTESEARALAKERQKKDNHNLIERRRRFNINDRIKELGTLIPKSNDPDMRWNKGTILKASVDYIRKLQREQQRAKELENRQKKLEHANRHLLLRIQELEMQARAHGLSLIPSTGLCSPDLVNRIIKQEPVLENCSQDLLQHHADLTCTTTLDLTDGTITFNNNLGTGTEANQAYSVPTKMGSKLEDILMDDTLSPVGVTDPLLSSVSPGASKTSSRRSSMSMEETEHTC

Vero = Vero cell cytotoxicity, cytotoxicity control for flavivirus capping enzyme inhibitors (AID 588742); format: functional; conditions: Chlorocebus sabaeus
[11] = biological target: T1, Polyadenylate-binding protein 1; experiment: PABP1 MLLE–PAM2 binding inhibitor potency, dose response, biochemical, fluorescence polarization, FITC-PAM2 peptide (AID 602259); format: functional; conditions: read-out: IC50_Mean
[12] = enhancers of respiration in Yfh1-depleted yeast, dose response, Friedreich's ataxia, plus single-dose screen (AID 1465); format: functional;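 further: yeast depleted of Yfh1p frataxin homolog grown on glycerol needing respiration; WST-1 tetrazolium dye reduction as measure of cellular dehydrogenase metabolic activity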
[13] = biological target: FAD-linked sulfhydryl oxidase ALR (Homo sapiens, UniProt P55789); experiment: inhibitors of human ALR sulfhydryl oxidase, dose response, biochemical, H2O2 detection, luminescence, cherry-pick (AID 493248)
[14] = biological target: T3, Replicative DNA helicase DnaB (Mycobacterium tuberculosis, UniProt P9WMR3); experiment: DnaB intein splicing inhibitors, dose response, biochemical, cell-free fluorescence (AID 449749); format: functional
T3 sequence (P9WMR3 whole entry): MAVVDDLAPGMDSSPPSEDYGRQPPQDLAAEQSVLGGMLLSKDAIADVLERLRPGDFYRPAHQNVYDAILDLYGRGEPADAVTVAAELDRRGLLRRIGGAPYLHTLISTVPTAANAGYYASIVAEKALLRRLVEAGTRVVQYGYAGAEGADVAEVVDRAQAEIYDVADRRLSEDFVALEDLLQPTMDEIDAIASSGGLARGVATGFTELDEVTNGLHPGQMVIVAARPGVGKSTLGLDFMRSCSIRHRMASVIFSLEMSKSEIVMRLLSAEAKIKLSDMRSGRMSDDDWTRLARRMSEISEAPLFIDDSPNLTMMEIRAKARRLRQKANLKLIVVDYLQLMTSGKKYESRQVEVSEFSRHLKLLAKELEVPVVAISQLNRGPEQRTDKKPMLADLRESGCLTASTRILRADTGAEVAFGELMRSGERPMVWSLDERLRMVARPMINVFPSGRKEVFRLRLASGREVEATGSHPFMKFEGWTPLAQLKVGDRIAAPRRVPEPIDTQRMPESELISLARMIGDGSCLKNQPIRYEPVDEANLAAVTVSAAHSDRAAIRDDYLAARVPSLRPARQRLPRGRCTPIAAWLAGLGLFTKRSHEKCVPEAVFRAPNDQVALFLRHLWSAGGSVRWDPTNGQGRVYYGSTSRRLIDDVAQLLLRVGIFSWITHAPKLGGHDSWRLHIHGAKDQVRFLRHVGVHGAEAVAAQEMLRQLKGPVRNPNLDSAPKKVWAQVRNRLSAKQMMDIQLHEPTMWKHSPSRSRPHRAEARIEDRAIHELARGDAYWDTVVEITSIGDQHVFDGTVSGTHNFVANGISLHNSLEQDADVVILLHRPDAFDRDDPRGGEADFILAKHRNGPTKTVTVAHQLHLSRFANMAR

Protein RecA = biological target: T4, Protein RecA (Mycobacterium tuberculosis, UniProt P9WHJ3); experiment: Fluorescence Cell-Free Homogeneous Dose Retest to Identify Inhibitors of RecA-Intein Splicing Activity. [Related pubchem assays (depositor defined):AID2097, AID2223, AID489010, AID492950]; format: functional
T4 sequence (P9WHJ3 whole entry): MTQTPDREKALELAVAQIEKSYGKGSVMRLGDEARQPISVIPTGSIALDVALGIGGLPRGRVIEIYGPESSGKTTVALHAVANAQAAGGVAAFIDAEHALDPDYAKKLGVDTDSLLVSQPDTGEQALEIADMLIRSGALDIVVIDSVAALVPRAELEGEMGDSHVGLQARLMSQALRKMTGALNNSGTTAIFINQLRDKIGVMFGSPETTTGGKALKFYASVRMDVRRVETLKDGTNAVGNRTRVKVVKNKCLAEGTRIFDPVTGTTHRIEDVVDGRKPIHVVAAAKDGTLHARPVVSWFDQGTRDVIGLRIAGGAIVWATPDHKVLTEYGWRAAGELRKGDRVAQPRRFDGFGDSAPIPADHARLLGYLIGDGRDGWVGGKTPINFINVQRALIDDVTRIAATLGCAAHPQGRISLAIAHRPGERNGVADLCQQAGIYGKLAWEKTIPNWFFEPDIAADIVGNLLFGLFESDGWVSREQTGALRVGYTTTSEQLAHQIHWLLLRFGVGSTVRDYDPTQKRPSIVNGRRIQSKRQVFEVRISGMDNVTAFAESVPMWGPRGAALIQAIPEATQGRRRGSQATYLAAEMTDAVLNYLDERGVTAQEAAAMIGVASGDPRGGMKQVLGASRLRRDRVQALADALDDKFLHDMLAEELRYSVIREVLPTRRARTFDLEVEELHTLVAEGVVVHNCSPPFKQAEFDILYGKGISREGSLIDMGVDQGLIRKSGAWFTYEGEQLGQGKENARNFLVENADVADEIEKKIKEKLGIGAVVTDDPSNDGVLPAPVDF

A-375 = experiment: A375 melanoma cell viability reduction, dose response, counter-screen for MITF modulator project, cherry-pick samples, set 2 (AID 540335); format: functional, cell-based; conditions: Homo sapiens
Ephrin type-A receptor 4 = Ephrin type-A receptor 4 (Mus musculus, UniProt Q03137); experiment: inhibitors of EphA4 binding to KYL peptide, primary screen, biochemical, colorimetric, mouse EphA4 (AID 689); format: functional
[15] = biological target: T5, Botulinum neurotoxin type A (Clostridium botulinum (strain Hall / ATCC 3502 / NCTC 13319 / Type A), UniProt P0DPI1); experiment: High-throughput multiplex microsphere dose response for inhibitors of toxin protease, specifically Botulinum neurotoxin light chain A protease, compounds from Powder Set 01.; format: functional, Clostridium botulinum A str. ATCC 3502; conditions: read-out: EC50_MICROM
ORF 73 = ORF 73 (Human herpesvirus 8, UniProt O40947); experiment: inhibitors of C-LANA binding to LBS DNA, dose response, biochemical, fluorescence polarization, cherry-picked samples (AID 504725); design: species or system Human gammaherpesvirus 8;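 further: fluorescence polarization of a labeled DNA duplex reporting LANA DNA binding; potency is for inhibitors that block LANA binding to the DNA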
Lethal factor = Lethal factor (Bacillus anthracis, UniProt P15917); experiment: High-throughput multiplex microsphere dose response for inhibitors of toxin protease, specifically Lethal Factor protease, compounds from Powder Set 01.; format: functional, Bacillus anthracis str. A2012; conditions: read-out: EC50_MICROM
[16] = biological target: Botulinum neurotoxin type F (Clostridium botulinum, UniProt P30996); experiment: High-throughput multiplex microsphere dose response for inhibitors of toxin protease, specifically Botulinum neurotoxin light chain F protease, compounds from Powder Set 01.; format: functional, Clostridium botulinum Bf; conditions: read-out: EC50_MICROM
[17] = biological target: T5, Botulinum neurotoxin type A; experiment: High-throughput multiplex microsphere dose response for inhibitors of toxin protease, specifically Botulinum neurotoxin light chain A protease, compounds from Cherry Pick 01.; format: functional; conditions: read-out: EC50_MICROM
[18] = biological target: T6, Zinc finger protein mex-5 (Caenorhabditis elegans, UniProt Q9XUB2); experiment: MEX-5/TCR-2 RNA interaction inhibitors, dose response, biochemical, C. elegans, fluorescence polarization (AID 1960)
T6 sequence (Q9XUB2 whole entry): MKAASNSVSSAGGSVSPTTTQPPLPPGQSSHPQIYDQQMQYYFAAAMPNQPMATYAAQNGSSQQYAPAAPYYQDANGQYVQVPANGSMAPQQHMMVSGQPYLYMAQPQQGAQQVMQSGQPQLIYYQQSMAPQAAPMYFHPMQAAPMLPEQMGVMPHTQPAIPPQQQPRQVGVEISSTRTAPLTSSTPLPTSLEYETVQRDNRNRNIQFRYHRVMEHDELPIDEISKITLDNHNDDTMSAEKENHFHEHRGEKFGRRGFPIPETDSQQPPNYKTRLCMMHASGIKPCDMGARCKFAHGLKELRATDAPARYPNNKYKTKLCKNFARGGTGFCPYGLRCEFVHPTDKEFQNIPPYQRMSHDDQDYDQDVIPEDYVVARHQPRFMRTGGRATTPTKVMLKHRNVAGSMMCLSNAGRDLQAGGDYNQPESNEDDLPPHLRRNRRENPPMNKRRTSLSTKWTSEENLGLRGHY

[19] = biological target: T7, RNA-binding protein pos-1 (Caenorhabditis elegans, UniProt G5EF15); experiment: inhibitors of POS-1/mex-3 RNA binding, dose response, biochemical, fluorescence polarization (AID 1964);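 further: purified POS-1 fused to maltose binding protein made in E. coli; potency of compounds blocking POS-1 binding to fluorescent RNA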
T7 sequence (G5EF15 whole entry): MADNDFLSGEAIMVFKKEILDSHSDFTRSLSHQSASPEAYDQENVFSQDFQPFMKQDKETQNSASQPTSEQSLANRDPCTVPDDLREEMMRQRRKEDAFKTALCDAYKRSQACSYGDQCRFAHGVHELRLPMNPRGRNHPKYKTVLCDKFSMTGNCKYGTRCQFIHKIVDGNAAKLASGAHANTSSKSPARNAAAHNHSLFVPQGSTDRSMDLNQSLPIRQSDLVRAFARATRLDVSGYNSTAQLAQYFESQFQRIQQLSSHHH

T5 sequence (P0DPI1 2-448 limits assumed): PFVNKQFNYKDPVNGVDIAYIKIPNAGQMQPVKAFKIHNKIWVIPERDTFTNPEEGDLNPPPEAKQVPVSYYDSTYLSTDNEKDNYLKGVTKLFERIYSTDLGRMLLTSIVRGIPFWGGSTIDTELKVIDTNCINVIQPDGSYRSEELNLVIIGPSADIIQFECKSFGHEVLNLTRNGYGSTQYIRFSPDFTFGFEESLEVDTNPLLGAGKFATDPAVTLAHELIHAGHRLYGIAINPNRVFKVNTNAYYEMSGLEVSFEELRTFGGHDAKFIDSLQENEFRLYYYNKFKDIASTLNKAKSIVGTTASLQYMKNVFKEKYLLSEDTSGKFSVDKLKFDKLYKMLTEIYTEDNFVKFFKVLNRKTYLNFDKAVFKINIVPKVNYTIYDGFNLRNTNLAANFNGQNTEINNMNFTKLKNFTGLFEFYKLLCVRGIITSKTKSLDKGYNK
T1 sequence (P11940 whole entry): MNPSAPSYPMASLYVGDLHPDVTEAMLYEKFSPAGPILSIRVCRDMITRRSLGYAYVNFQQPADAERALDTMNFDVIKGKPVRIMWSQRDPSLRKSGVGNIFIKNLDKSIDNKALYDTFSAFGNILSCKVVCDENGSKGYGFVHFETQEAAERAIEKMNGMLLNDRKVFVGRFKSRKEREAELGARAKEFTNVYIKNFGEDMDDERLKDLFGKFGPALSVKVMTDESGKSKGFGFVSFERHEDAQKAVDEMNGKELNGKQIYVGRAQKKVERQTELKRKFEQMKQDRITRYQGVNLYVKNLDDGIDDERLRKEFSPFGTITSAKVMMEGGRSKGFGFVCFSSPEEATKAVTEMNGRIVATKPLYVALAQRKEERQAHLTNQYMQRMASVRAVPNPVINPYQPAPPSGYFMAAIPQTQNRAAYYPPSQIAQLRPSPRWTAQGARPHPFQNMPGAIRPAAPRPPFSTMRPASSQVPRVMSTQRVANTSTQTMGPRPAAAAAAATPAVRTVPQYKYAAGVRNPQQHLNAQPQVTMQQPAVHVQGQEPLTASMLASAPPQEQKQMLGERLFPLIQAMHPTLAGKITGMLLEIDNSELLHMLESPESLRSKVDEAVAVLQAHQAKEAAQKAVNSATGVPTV
Ephrin type-A receptor 4, sequence (Q03137 whole entry): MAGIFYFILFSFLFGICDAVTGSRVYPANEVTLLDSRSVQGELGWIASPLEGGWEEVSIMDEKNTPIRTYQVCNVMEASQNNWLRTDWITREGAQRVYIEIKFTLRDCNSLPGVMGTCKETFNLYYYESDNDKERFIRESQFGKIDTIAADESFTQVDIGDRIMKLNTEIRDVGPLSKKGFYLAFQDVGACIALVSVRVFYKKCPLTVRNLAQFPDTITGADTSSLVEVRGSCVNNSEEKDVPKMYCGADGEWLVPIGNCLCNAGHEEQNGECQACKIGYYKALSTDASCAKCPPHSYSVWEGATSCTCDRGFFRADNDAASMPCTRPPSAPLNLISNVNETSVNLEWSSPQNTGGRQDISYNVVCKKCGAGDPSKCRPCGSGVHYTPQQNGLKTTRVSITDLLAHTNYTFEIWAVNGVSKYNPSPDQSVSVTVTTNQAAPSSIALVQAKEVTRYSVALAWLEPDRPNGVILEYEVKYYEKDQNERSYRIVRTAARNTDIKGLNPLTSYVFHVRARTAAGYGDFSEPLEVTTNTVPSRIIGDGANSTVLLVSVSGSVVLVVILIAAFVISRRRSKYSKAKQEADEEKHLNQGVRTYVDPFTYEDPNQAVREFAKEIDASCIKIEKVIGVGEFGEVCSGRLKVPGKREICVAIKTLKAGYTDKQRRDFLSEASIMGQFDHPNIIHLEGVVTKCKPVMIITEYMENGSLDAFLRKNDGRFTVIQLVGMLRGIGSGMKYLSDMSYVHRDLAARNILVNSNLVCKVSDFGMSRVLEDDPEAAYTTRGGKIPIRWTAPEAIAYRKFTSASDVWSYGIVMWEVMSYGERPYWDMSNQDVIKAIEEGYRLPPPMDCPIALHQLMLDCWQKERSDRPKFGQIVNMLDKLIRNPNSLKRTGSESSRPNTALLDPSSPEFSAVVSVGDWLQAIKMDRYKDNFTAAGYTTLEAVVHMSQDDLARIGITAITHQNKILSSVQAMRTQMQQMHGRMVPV
Botulinum neurotoxin type F, sequence (P30996 1-436 limits assumed): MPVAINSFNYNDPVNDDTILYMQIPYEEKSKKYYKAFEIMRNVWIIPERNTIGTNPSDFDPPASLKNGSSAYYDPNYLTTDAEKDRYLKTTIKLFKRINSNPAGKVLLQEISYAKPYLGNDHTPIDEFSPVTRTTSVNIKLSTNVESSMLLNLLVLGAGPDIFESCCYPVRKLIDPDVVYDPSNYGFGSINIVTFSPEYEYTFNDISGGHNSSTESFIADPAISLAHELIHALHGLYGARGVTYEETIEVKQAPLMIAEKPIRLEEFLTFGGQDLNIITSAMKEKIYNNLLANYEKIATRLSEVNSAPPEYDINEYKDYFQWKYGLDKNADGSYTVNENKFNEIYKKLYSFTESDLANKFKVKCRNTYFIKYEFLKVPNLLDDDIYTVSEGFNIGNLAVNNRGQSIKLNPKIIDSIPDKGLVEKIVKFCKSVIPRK
Lethal factor, sequence (P15917 whole entry): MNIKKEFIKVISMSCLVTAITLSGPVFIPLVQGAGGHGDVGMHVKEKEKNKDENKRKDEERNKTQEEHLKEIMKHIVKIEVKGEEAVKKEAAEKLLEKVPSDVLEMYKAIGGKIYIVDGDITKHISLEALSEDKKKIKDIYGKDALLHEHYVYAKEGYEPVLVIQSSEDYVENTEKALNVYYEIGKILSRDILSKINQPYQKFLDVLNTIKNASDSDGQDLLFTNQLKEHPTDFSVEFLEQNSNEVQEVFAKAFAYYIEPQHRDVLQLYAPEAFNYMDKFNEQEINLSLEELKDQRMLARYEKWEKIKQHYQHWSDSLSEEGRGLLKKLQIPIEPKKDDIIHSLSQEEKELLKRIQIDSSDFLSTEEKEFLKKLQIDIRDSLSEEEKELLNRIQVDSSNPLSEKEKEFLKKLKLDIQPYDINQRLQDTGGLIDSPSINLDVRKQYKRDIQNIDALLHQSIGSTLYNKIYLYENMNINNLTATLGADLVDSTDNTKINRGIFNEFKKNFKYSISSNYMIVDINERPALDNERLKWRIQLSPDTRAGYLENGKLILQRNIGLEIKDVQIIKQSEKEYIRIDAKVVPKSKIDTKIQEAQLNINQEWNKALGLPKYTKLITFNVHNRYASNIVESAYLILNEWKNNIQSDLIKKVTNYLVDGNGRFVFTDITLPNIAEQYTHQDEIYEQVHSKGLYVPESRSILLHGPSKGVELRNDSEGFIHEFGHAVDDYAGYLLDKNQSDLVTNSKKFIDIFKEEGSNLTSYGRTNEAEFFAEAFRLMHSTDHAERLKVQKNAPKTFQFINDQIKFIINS
FAD-linked sulfhydryl oxidase ALR, sequence (P55789 whole entry): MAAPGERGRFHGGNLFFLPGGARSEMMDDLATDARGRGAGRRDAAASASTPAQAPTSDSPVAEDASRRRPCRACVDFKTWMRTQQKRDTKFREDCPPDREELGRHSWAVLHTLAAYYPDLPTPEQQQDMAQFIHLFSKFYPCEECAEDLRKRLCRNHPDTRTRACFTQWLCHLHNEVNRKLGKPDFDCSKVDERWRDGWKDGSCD
ORF 73, sequence (O40947 whole entry): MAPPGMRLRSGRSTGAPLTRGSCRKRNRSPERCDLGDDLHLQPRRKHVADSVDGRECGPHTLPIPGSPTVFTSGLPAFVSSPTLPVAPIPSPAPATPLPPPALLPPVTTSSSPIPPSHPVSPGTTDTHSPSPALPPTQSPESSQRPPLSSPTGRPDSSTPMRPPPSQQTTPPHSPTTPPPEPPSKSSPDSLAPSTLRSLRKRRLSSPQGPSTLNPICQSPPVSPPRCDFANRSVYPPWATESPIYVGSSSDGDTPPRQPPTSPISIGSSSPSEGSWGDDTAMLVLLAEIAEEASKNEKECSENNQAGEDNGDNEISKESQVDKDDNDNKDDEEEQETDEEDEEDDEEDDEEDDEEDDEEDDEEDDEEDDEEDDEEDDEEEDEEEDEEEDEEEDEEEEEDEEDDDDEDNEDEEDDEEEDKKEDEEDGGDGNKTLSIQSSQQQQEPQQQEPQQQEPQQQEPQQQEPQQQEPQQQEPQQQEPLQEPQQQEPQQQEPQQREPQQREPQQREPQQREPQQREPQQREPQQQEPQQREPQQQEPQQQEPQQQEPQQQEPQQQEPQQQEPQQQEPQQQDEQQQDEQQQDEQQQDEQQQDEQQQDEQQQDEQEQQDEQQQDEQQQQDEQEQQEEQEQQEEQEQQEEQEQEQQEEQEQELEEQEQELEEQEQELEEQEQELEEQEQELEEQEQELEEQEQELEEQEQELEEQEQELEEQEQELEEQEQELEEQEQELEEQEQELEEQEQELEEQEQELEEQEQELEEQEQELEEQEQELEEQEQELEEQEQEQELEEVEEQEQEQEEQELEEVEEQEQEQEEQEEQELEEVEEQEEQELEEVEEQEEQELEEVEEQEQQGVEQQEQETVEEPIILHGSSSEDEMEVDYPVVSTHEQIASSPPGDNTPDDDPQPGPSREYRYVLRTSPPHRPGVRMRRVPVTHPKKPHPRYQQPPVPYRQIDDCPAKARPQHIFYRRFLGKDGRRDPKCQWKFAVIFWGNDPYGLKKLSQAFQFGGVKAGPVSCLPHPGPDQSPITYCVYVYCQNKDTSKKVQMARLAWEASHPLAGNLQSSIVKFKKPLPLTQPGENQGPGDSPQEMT

In the case of `COc1ccccc1C1CC(=O)Nc2cc3c(cc21)OCCO3` (centres undefined), the EC50 [1] is reported as > 12 µM (not active), the EC50 (BJ [2]) is reported as 7.46 µM (active) and the EC50 [3] is reported as 7.13 µM (inconclusive). The EC50 (BJ [4]) was 19.4 µM (active), the EC50 [5] was < 0.1 µM (active) and the EC50 (BJ [6]) was 1.4 µM (inconclusive). The IC50 (J774.A1) was > 25 µM (inactive), the EC50 (cells) was > 12 µM (not active) and the EC50 [7] was 2.17 µM (active). For the same molecule, the EC50 [8] was 2 µM (active).

In the case of `COc1ccc(S(=O)(=O)Nc2ccc(O)c3ccccc23)cc1`, the IC50 [9] is reported as > 66 µM (inactive), the IC50 (Hexokinase HKDC1) is reported as 21 µM (inactive) and the AC50 (INS1) is reported as 4.67 µM (active). The AC50 [10] was 9.07 µM (active), the CC50 (Vero) was > 40 µM (active) and the IC50 [11] was > 66 µM (inactive). For the same molecule, the EC50 [12] was > 100 µM (active), the AC50 [13] was 18.4 µM (active) and the AC50 [14] was 0.0824 µM (active). For the same molecule, the EC50 (Protein RecA) was 0.0478 µM (active) and the AC50 (A-375) was 33.1 µM (active).

In the case of `c1ccc(-c2cn3nc(-c4ccccc4)c(-c4ccccc4)nc3n2)cc1`, the IC50 (Ephrin type-A receptor 4) is reported as 1.2 µM (active), the EC50 [15] is reported as 0.6 µM (active) and the AC50 (ORF 73) is reported as 47.3 µM (active). For the same molecule, the EC50 (Lethal factor) was 1.6 µM (active), the EC50 [16] was 5.3 µM (active) and the EC50 [17] was 5.8 µM (active). The EC50 [18] was 3.84 µM (active) and the EC50 [19] was 2.82 µM (active).
